The numbers were not newly measured in patent publication US20230038462A1, “TRANSDERMAL PENETRANT FORMULATIONS CONTAINING CANNABIDIOL” (DYVE BIOSCIENCES, INC., priority 2019, published 2023), which cites them from elsewhere.

Take `C=C(C)[C@@H]1CCC(C)=C[C@H]1c1c(O)cc(CCCCC)cc1O` [Cannabidiol]: the “side effects of long-term use” value is “somnolence, decreased appetite, diarrhea, fatigue, malaise, weakness, and sleeping problems”.
